Molecular target: T1, GlyT1 transporter (Homo sapiens, UniProt P48067)
T1 construct: endogenously expressing the GlyT1 transporter; host or cells: SK-N-MC human neuroblastoma cells
T1 sequence (P48067 1-706): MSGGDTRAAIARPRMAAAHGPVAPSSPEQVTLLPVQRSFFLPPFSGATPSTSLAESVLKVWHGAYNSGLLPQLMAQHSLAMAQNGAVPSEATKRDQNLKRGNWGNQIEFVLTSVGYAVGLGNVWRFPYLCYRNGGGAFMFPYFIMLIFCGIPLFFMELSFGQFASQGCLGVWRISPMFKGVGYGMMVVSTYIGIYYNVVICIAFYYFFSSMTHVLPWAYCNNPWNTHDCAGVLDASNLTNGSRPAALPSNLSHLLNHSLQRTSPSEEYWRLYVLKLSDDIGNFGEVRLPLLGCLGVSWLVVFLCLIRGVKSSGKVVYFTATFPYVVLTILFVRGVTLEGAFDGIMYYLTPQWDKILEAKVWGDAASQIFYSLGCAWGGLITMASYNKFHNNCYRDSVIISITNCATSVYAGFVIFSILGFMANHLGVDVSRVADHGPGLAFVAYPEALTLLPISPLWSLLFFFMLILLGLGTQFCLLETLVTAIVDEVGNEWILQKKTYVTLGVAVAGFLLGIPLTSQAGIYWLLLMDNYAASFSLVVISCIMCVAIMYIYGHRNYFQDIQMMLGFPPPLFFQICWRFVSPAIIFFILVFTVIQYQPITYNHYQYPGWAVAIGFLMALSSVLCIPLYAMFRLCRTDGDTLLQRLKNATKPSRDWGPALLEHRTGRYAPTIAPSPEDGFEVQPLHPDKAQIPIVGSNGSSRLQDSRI
Experiment: GlyT1 assay: 3H-glycine uptake into SK-N-MC cells (Cytostar-T format)
Type: cell-based
Conditions: glycine uptake in human SK-N-MC cells endogenously expressing GlyT1; 500 nM glycine, 1% DMSO, signal recorded over 60 min
Text: Cells expressing either endogenously the GlyT1 transporter like JAR cells (human placental choriocarcinoma cells; e.g. WO 2008/002583) or SK-N-MC cells (human neuroblastoma cells; Depoortere et al., 2005. Neuropsychopharmacology 30:1963-1985) or primary neurons or cells which have been transfected with a plasmid encoding the cDNA of a functional GlyT1 transporter and stably or transiently express GlyT1 (e.g. WO 2006/08200) can be used to monitor glycine uptake in cells. Different protocols for determination of the glycine uptake into the cells described above can be applied in order to identify and rank compounds which interfere with glycine uptake in the selected cell.
Compounds outlined in the examples below were characterized using human SK-N-MC cells (ATCC number HTB-10) endogenously expressing the GlyT1 transporter which is responsible for the uptake of glycine into these cells and the uptake of glycine into these cells is monitored using the Cytostar-T assay format (GE Healthcare, RPNQ0162) which is based on the radioactive glycine taken up by the cells and brought into proximity with the scintillant contained within the base of the plate. The radioactive decay is converted to a light signal based on the integration of the scintillation matrix into the assay plate. The uptake is recorded as kinetic and the slope of the measured counts over time is used to calculate IC50.
In detail, SK-N-MC cells are seeded into 96-well Cytostar-T assay plates at a density of 200,000 cells/well and grown for 16-18 hours to confluence in growth medium as recommended by ATCC. Before starting the assay, cells are washed once with HBSS (Hank's buffered salt solution; Sigma, H8264) cont. 5 mM alanine (referred in here as HBSS/Ala) and afterwards the following reagents are added: • 1. 80 μl/well HBSS/Ala • 2. 20 μl/well of HBSS/Ala containing 6× the concentration of compound in 6% DMSO • 3. approx. 5-10 min incubation • 4. 20 μl/well 3 μM glycine (^3H-glycine (Perkin Elmer, NET004001MC, specific activity: 52 Ci/mmol; diluted 1:1 with unlabelled glycine) in HBSS/Ala.
In the final assay, glycine concentration is 500 nM (250 nM derived from the ^3H-glycine Perkin Elmer, 250 nM unlabelled glycine), DMSO concentration is 1%.
The assay plate is immediately after addition of the ^3H-glycine placed into a Micro-Beta Counter (Perkin Elmer) and the signal is recorded over 60 min.
To calculate uptake, the slope in the linear range of the kinetics is determined using GraphPadPrism and for the different slopes at the selected concentrations IC50 are calculated by curve fitting using the software GraphPadPrism.
Maximal glycine uptake in every experiment is determined by incubation of SK-N-MC cells with substrate but without inhibitor. Unspecific uptake of glycine by the cells is determined by incubating the cells with substrate and a reference GlyT1 inhibitor e.g. 10 μM RG-1678 (Pinard et al., 2010, J. Med. Chem. 53(12):4603-14).
Compounds are diluted from 10 mM stocks and in general, for IC50 determination 8 compound concentrations are used.

With `C[C@@H](Oc1ccc(S(C)(=O)=O)cc1C(=O)N1CC2CC2(c2cc(C(F)(F)F)on2)C1)C(F)(F)F` (single isomer, unassigned) [Example 50, [5-Methanesulfonyl-2-(2,2,2-trifluoro-1-methyl-ethoxy)-phenyl]-[1-(5-trifluoromethyl-isoxazol-3-yl)-3-aza-bicyclo[3.1.0]hex-3-yl]-methanone] as the molecule, how does the IC50 read?
Its IC50 is 6 nM.

How did the IC50 turn out when `C[C@H](Oc1ccc(S(C)(=O)=O)cc1C(=O)N1CC2CC2(c2cccc(C(F)(F)F)n2)C1)C(F)(F)F` (single isomer, unassigned) [Example 56, [5-Methanesulfonyl-2-(2,2,2-trifluoro-1-methyl-ethoxy)-phenyl]-[1-(6-trifluoromethyl-pyridin-2-yl)-3-aza-bicyclo[3.1.0]hex-3-yl]-methanone] was run?
Its IC50 is 233 nM.

How did the IC50 turn out when `C[C@H](Oc1ccc(S(C)(=O)=O)cc1C(=O)N1CC2CC2(c2noc(C3CC(F)(F)C3)n2)C1)C(F)(F)F` (mixture of isomers) [Example 13, {1-[5-(3,3-Difluoro-cyclobutyl)-[1,2,4]oxadiazol-3-yl]-3-aza-bicyclo[3.1.0]hex-3-yl}-[5-methanesulfonyl-2-(2,2,2-trifluoro-1-methyl-ethoxy)-phenyl]-methanone] was run?
Its IC50 is 9 nM.

For `C[C@H](Oc1ccc(S(C)(=O)=O)cc1C(=O)N1CC2CC2(c2csc(C(F)(F)F)n2)C1)C(F)(F)F` (single isomer, unassigned) [Example 27, [5-Methanesulfonyl-2-(2,2,2-trifluoro-1-methyl-ethoxy)-phenyl]-[1-(2-trifluoromethyl-thiazol-4-yl)-3-aza-bicyclo[3.1.0]hex-3-yl]-methanone], which IC50 is on record?
Its IC50 is 5 nM.

Which IC50 does the source give for `C[C@@H](Oc1ccc(S(C)(=O)=O)cc1C(=O)N1CC2CC2(c2noc(C(F)(F)F)n2)C1)C(F)(F)F` (mixture of isomers) [Example 58, [5-Methanesulfonyl-2-(2,2,2-trifluoro-1-methyl-ethoxy)-phenyl]-[1-(5-trifluoromethyl-[1,2,4]oxadiazol-3-yl)-3-aza-bicyclo[3.1.0]hex-3-yl]-methanone] here?
The IC50 was 17 nM.

Which IC50 does the source give for `C[C@@H](Oc1ccc(S(C)(=O)=O)cc1C(=O)N1CC2CC2(c2nc(C(F)(F)F)co2)C1)C(F)(F)F` (single isomer, unassigned) [Example 114, [5-Methanesulfonyl-2-(2,2,2-trifluoro-1-methyl-ethoxy)-phenyl]-[1-(4-trifluoromethyl-oxazol-2-yl)-3-aza-bicyclo[3.1.0]hex-3-yl]-methanone] here?
Its IC50 is 171 nM.

How did the IC50 turn out when `C[C@@H](Oc1ccc(S(C)(=O)=O)cc1C(=O)N1CC2CC2(c2nnc(C(F)(F)F)o2)C1)C(F)(F)F` (mixture of isomers) [Example 122, [5-Methanesulfonyl-2-(2,2,2-trifluoro-1-methyl-ethoxy)-phenyl]-[1-(5-trifluoromethyl-[1,3,4]oxadiazol-2-yl)-3-aza-bicyclo[3.1.0]hex-3-yl]-methanone] was run?
Its IC50 is 21 nM.

Which IC50 does the source give for `C[C@H](Oc1ccc(S(C)(=O)=O)cc1C(=O)N1CC2CC2(c2nccc(C(F)(F)F)n2)C1)C(F)(F)F` (mixture of isomers) [Example 15, [5-Methanesulfonyl-2-(2,2,2-trifluoro-1-methyl-ethoxy)-phenyl]-[1-(4-trifluoromethyl-pyrimidin-2-yl)-3-aza-bicyclo[3.1.0]hex-3-yl]-methanone] here?
Its IC50 is 14 nM.

How did the IC50 turn out when `C[C@H](Oc1ccc(S(C)(=O)=O)cc1C(=O)N1CC2CC2(c2noc(C3(C(F)(F)F)CC3)n2)C1)C(F)(F)F` (mixture of isomers) [Example 65, [5-Methanesulfonyl-2-(2,2,2-trifluoro-1-methyl-ethoxy)-phenyl]-{1-[5-(1-trifluoromethyl-cyclopropyl)-[1,2,4]oxadiazol-3-yl]-3-aza-bicyclo[3.1.0]hex-3-yl}-methanone] was run?
Its IC50 is 9 nM.

How did the IC50 turn out when `C[C@@H](Oc1ccc(S(C)(=O)=O)cc1C(=O)N1CC2CC2(c2noc(C3(C)CC3)n2)C1)C(F)(F)F` (mixture of isomers) [Example 135, [5-Methanesulfonyl-2-(2,2,2-trifluoro-1-methyl-ethoxy)-phenyl]-{1-[5-(1-methyl-cyclopropyl)-[1,2,4]oxadiazol-3-yl]-3-aza-bicyclo[3.1.0]hex-3-yl}-methanone] was run?
The IC50 was 7 nM.

With `C[C@@H](Oc1ccc(S(C)(=O)=O)cc1C(=O)N1CC2CC2(c2noc(C(F)(F)F)n2)C1)C(F)(F)F` (single isomer, unassigned) [Example 5, [5-Methanesulfonyl-2-(2,2,2-trifluoro-1-methyl-ethoxy)-phenyl]-[1-(5-trifluoromethyl-[1,2,4]oxadiazol-3-yl)-3-aza-bicyclo[3.1.0]hex-3-yl]-methanone] as the molecule, how does the IC50 read?
Its IC50 is 1380 nM.

How did the IC50 turn out when `C[C@H](Oc1ccc(S(C)(=O)=O)cc1C(=O)N1CC2CC2(c2cc(C(F)(F)F)on2)C1)C(F)(F)F` (mixture of isomers) [Example 46, [5-Methanesulfonyl-2-(2,2,2-trifluoro-1-methyl-ethoxy)-phenyl]-[1-(5-trifluoromethyl-isoxazol-3-yl)-3-aza-bicyclo[3.1.0]hex-3-yl]-methanone] was run?
The IC50 was 29 nM.

With `Cc1c(C23CC2CN(C(=O)c2cc(S(C)(=O)=O)ccc2O[C@@H](C)C(F)(F)F)C3)noc1C(F)(F)F` (mixture of isomers) [Example 163] as the molecule, how does the IC50 read?
The IC50 was 16 nM.

`C[C@@H](Oc1ccc(S(C)(=O)=O)cc1C(=O)N1CC2CC2(c2nccc(C3CC3)n2)C1)C(F)(F)F` (mixture of isomers) [Example 79, [1-(4-Cyclopropyl-pyrimidin-2-yl)-3-aza-bicyclo[3.1.0]hex-3-yl]-[5-methanesulfonyl-2-(2,2,2-trifluoro-1-methyl-ethoxy)-phenyl]-methanone] was tested. Which IC50 did it give?
The IC50 was 6 nM.

How did the IC50 turn out when `C[C@@H](Oc1ccc(C#N)cc1C(=O)N1CC2CC2(c2noc(C(F)(F)F)n2)C1)C(F)(F)F` (mixture of isomers) [Example 91, 4-(2,2,2-Trifluoro-1-methyl-ethoxy)-3-[1-(5-trifluoromethyl-[1,2,4]oxadiazol-3-yl)-3-aza-bicyclo[3.1.0]hexane-3-carbonyl]-benzonitrile] was run?
The IC50 was 112 nM.

For `CC(C)Oc1ccc(S(C)(=O)=O)cc1C(=O)N1CC2CC2(c2noc(C(F)(F)F)n2)C1` (single isomer, unassigned) [Example 98, (2-Isopropoxy-5-methanesulfonyl-phenyl)-[1-(5-trifluoromethyl-[1,2,4]oxadiazol-3-yl)-3-aza-bicyclo[3.1.0]hex-3-yl]-methanone], which IC50 is on record?
The IC50 was 1890 nM.

`C[C@H](Oc1ccc(C#N)cc1C(=O)N1CC2CC2(c2noc(C(F)(F)F)n2)C1)C(F)(F)F` (single isomer, unassigned) [Example 89, 4-(2,2,2-Trifluoro-1-methyl-ethoxy)-3-[1-(5-trifluoromethyl-[1,2,4]oxadiazol-3-yl)-3-aza-bicyclo[3.1.0]hexane-3-carbonyl]-benzonitrile] was tested. Which IC50 did it give?
Its IC50 is 97 nM.

How did the IC50 turn out when `C[C@H](Oc1ccc(S(C)(=O)=O)cc1C(=O)N1CC2(C)CC2(c2noc(C(F)(F)F)n2)C1)C(F)(F)F` (single isomer, unassigned) [Example 158, [5-Methanesulfonyl-2-(2,2,2-trifluoro-1-methyl-ethoxy)-phenyl]-[1-methyl-5-(5-trifluoromethyl-[1,2,4]oxadiazol-3-yl)-3-aza-bicyclo[3.1.0]hex-3-yl]-methanone] was run?
Its IC50 is 85 nM.

Source: patent US9012489B2, “Phenyl-3-aza-bicyclo[3.1.0]hex-3-yl-methanones and the use thereof as medicament” (Boehringer Ingelheim International GmbH, priority 2011, dated 2015)
